Test results: patent US12421207B2 (CMG Pharmaceutical Co., Ltd., priority 2022, dated 2025)
Like-named read-outs stand apart in the source and are kept apart here. One block for each molecule: values may come before it.

Key:
HCC827/OR cells = test: Cell viability assay (CellTiter-Glo 2.0), osimertinib-resistant HCC827/OR cells; assay type: cell-based, human
Description: (§1) To explore c-MET and AXL mechanisms of EGFR TKI resistance, resistant cells of the EGFR TKI hypersensitive EGFR exon 19 mutant NSCLC cell line, HCC827 and PC9 were generated by exposing these cells to increasing concentrations of EGFR TKI for over 3 months.
(§2) Gefitinib-resistant cells were referred to as HCC827/GR. […] Osimertinib-resistant cells were referred to as HCC827/OR.

PC9/ER cells = test: Cell viability assay (CellTiter-Glo 2.0), erlotinib-resistant PC9/ER cells; assay type: cell-based
Description: as §1, §2

c-MET = c-MET (Homo sapiens, UniProt P08581); test: Enzymatic kinase assay (ADP-Glo), c-MET; assay type: biochemical; settings: poly (Glu4, Tyr1) substrate, 60 min room temperature, ADP-GLO luminescence
c-MET, sequence (P08581 25-1390): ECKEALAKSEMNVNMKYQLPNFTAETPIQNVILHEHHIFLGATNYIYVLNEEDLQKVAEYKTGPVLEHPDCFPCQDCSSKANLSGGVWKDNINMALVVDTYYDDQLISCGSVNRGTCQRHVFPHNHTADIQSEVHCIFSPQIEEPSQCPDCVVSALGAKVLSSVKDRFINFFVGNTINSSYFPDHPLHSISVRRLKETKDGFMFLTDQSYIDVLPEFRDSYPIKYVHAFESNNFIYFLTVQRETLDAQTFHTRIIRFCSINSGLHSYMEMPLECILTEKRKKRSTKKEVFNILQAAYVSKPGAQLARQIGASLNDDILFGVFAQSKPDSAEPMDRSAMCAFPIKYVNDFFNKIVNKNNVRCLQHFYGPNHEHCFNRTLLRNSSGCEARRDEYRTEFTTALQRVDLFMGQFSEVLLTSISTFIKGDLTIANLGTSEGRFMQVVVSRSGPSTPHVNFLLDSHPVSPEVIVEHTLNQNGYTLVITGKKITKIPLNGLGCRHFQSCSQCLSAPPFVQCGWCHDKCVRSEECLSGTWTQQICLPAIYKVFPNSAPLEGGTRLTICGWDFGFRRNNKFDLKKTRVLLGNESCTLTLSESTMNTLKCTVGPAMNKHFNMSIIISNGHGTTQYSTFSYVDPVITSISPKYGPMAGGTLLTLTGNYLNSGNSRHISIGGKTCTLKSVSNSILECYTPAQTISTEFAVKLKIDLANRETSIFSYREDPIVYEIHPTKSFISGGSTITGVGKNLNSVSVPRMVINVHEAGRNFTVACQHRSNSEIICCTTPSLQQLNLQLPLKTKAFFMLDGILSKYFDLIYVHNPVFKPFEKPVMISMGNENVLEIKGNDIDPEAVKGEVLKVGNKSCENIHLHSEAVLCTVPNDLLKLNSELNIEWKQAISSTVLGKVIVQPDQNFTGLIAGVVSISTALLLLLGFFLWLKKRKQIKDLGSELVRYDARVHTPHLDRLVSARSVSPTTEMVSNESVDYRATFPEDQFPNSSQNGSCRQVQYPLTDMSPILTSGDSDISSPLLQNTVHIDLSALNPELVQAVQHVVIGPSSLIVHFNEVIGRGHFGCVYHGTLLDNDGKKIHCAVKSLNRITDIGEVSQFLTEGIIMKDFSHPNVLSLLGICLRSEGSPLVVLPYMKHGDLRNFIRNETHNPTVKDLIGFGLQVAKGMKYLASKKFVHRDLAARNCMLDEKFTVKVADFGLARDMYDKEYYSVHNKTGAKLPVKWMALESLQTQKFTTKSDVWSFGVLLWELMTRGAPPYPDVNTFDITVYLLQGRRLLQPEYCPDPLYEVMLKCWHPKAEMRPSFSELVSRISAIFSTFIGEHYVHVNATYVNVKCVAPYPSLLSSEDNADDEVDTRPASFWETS
Procedure: (§3) All the kinase reactions were performed in 5 μL using tyrosine kinase buffer with 0.2 μg/μL poly (Glu4, Tyr1) substrate, 10 µM ATP, serial dilution of the inhibitor, and incubated at room temperature for 60 min. After the indicated incubation times, 5 μL ADP-GLO™ reagent (Promega, Madison, WI) was added to the reactions and the plate was incubated at room temperature for 40 min. […] All 384-well assay plates were read using a GLOMAX™ Discover Microplate Luminometer from Promega (Madison, WI). To plot, analyze the data and calculate all kinase reaction biochemical values, both Microsoft Excel and Prism from GraphPad 7 Software (La Jolla, CA) were used.

HCC827/GR cells = test: Cell viability assay (CellTiter-Glo 2.0), gefitinib-resistant HCC827/GR cells; assay type: cell-based, human; settings: 72 h drug treatment, read-out: Relative cell viability, IC50 HCC827GR
In short: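 Gefitinib-resistant HCC827 cells, derived by over 3 months' escalating EGFR TKI exposure, seeded at 1,000 cells/well. Treated 72 h with a 10-point dose range from 1 nM to 10,000 nM. Viability read by CellTiter-Glo 2.0 luminescence.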

HCC827/ER cells = test: Cell viability assay (CellTiter-Glo 2.0), erlotinib-resistant HCC827/ER cells; assay type: cell-based, human; settings: 72 h drug treatment, read-out: Relative cell viability, IC50 HCC827ER
Description: as §1, §2

MER = molecular target: T1, MER (Homo sapiens, UniProt Q12866); test: Enzymatic kinase assay (ADP-Glo), MER; assay type: biochemical; settings: poly (Glu4, Tyr1) substrate, 60 min room temperature, ADP-GLO luminescence
T1 sequence (Q12866 21-999): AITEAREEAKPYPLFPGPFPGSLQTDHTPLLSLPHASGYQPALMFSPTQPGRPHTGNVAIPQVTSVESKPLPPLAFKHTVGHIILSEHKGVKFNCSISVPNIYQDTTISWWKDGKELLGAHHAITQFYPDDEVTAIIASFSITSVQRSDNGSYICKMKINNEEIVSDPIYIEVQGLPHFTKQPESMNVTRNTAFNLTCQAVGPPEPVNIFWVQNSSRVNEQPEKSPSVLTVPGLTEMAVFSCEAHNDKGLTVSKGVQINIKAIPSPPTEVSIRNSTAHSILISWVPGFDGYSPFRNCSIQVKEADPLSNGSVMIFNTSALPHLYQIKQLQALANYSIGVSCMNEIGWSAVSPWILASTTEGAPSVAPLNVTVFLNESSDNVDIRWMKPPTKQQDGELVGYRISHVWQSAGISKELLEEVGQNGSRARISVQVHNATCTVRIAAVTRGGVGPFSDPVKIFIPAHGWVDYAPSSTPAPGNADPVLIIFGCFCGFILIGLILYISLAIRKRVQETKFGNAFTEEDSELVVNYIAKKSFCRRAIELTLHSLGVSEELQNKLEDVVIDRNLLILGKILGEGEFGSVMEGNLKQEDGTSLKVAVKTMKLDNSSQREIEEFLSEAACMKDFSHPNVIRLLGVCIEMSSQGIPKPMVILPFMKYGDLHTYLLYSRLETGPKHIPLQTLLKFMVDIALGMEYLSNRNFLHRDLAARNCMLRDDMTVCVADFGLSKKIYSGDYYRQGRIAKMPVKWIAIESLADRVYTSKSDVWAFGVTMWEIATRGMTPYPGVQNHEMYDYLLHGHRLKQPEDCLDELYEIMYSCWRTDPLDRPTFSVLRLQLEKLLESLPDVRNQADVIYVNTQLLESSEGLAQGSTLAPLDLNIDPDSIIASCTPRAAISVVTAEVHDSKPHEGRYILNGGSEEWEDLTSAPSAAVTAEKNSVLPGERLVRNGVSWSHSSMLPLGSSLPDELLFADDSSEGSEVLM
Procedure: All the kinase reactions were performed in 5 μL using tyrosine kinase buffer with 0.2 μg/μL poly (Glu4, Tyr1) substrate, 10 µM ATP, serial dilution of the inhibitor, and incubated at room temperature for 60 min. After the indicated incubation times, 5 μL ADP-GLO™ reagent (Promega, Madison, WI) was added to the reactions and the plate was incubated at room temperature for 40 min. Then, 10 μL of kinase detection reagent was added and after an incubation time of 40 min, luminescence was recorded and IC50 values were determined (Table 1). All 384-well assay plates were read using a GLOMAX™ Discover Microplate Luminometer from Promega (Madison, WI). To plot, analyze the data and calculate all kinase reaction biochemical values, both Microsoft Excel and Prism from GraphPad 7 Software (La Jolla, CA) were used.
as §3, with “To plot, analyze the data and calculate all kinase reaction biochemical values, both Microsoft Excel and Prism from GraphPad 7 Software (La Jolla, CA) were used.” left out

AXL = molecular target: T2, AXL (Homo sapiens, UniProt P30530); test: Enzymatic kinase assay (ADP-Glo), AXL; assay type: biochemical; settings: poly (Glu4, Tyr1) substrate, 60 min room temperature, ADP-GLO luminescence
T2 sequence (P30530 26-894): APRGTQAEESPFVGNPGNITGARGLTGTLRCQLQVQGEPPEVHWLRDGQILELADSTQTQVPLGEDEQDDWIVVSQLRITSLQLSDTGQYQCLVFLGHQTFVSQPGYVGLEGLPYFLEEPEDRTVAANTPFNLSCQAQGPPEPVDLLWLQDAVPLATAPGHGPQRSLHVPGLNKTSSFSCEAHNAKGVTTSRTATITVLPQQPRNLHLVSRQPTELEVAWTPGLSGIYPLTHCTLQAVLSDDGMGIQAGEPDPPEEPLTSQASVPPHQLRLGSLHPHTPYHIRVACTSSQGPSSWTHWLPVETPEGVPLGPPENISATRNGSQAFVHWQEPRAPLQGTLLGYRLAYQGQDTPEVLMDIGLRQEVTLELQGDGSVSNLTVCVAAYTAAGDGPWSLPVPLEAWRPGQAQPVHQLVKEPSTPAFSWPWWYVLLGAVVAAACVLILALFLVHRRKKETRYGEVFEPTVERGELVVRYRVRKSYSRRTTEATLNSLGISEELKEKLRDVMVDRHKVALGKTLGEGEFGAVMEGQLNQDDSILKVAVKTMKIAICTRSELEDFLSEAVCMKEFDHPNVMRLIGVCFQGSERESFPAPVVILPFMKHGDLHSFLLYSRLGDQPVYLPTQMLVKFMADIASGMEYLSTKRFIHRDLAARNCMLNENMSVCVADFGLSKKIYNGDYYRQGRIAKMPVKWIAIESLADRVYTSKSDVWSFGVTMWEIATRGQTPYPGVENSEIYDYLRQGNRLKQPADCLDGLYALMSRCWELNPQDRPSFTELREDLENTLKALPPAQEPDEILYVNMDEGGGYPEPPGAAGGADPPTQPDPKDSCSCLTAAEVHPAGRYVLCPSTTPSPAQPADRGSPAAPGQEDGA
Procedure: as §3

PC9 cells = test: Cell viability assay, parental PC9 cells; assay type: cell-based; settings: Homo sapiens, PC-9; parental EGFR TKI-sensitive cells
Procedure: (§4) The human cell line HCC827 was purchased from the American Type Culture Collection (Manassas, VA), and the PC9 cell line was obtained from RIKEN Cell Bank (Ibaraki, Japan). […] Gefitinib-resistant cells were referred to as HCC827/GR. […] Osimertinib-resistant cells were referred to as HCC827/OR.
(§5) Cell viability assays were carried out by plating 1,000 cells per well of HCC827 or PC9 resistant cells, respectively, into white transparent-bottom 384-well plates. The cells were treated with each TKI across a 10-dose range from 1 nM to 10,000 nM. After 72 h of drug treatment, cell viability was measured using the CellTiter-Glo 2.0 assay (Promega, Madison, WI).

HCC827 cells = test: cells; settings: Homo sapiens, HCC827, read-out: EGFR TKI IC50 in HCC827 cells
Procedure: as §4, §5

[1] = Table 2, EGFR TKI resistant cells, combination with EGFR TKI
[2] = Table 4, combinations of EGFR TKIs and inhibitor of Formula (I)

IC50 (HCC827/OR cells; Table 2, 72 h drug treatment, EGFR TKI resistant cells, combination with EGFR TKI, read-out: Relative cell viability, IC50 HCC827OR): < 0.1 µM | IC50 (PC9/ER cells; Table 2, 72 h drug treatment, EGFR TKI resistant cells, combination with EGFR TKI, read-out: Relative cell viability, IC50 PC9ER): < 10 µM | IC50 (c-MET; Table 1): < 0.01 µM | IC50 (HCC827/GR cells; [1]): < 0.1 µM | IC50 (HCC827/ER cells; [1]): < 0.1 µM | IC50 (MER; Table 1): < 0.1 µM | IC50 (AXL; Table 1): < 0.01 µM
Molecule: CC(C)c1c(Oc2ccc(NC(=O)c3cn(C(C)C)c(=O)n(-c4ccc(F)cc4)c3=O)cc2F)ccnc1N [Example 8]

Molecule: C#Cc1cccc(Nc2ncnc3cc(OCCOC)c(OCCOC)cc23)c1 [erlotinib, reference compound]
IC50 (PC9/ER cells; Homo sapiens, PC-9/ER, read-out: EGFR TKI IC50 in PC9/ER): > 10 µM | higher resistance than the parental cells, PC9/ER (PC9/ER cells; PC9/ER versus parental PC9): 1,000 fold | IC50 (PC9 cells): < 0.01 µM

Molecule: C=CC(=O)Nc1cc(Nc2nccc(-c3cn(C)c4ccccc34)n2)c(OC)cc1N(C)CCN(C)C [osimertinib, reference compound]
higher resistance than the parental cells, HCC827/OR (HCC827/OR cells; HCC827/OR versus parental HCC827): 3,000 fold | IC50 (HCC827/OR cells; Homo sapiens, HCC827, read-out: EGFR TKI IC50 in HCC827/OR cells): > 1 µM | IC50 (HCC827 cells): < 0.0003 µM

IC50 (HCC827/OR cells; Table 4, 72 h drug treatment, combinations of EGFR TKIs and inhibitor of Formula (I), read-out: Relative cell viability, IC50 HCC827OR): < 10 µM | IC50 (PC9/ER cells; Table 4, 72 h drug treatment, combinations of EGFR TKIs and inhibitor of Formula (I), read-out: Relative cell viability, IC50 PC9ER): < 1 µM | IC50 (c-MET; Table 3): < 0.1 µM | IC50 (HCC827/GR cells; [2]): < 1 µM | IC50 (HCC827/ER cells; [2]): < 1 µM | IC50 (MER; Table 3): < 0.01 µM | IC50 (AXL; Table 3): < 0.01 µM
Molecule: N-(4-(2-amino-3-(3-piperidin-4-yl)prop-1-ynyl)pyridin-4-yloxy)-3-fluorophenyl)-3-cyclohexyl-1-ethyl-2,4-dioxo-1,2,3,4-tetrahydropyrimidine-5-carboxamide [Example 65]
